According to patent US11034839B2, “Compounds, linked with haptens, for the detection of senescent cells” (THE UNIVERSITY OF MANCHESTER, priority 2016, dated 2021):

Legend:
[1] = tested on: senescent cells in cellular systems, mouse models and human clinical samples; assay: Double staining with Ki67, p16INK4A or p21WAF1/Cip1
Method: (§1) • 1. Compound (LG13) • 2. 100% ethanol (100% EtOH) • 3. Parafilm • 4. Fritted glass filter of medium porosity • 5. Airtight Dye Container 2.2.2 General Procedure: • 1. Dissolve 40 mg of the compound (LG13) in 7.4 ml 100% EtOH in a glass beaker and cover it with parafilm. • 2. Incubate at 56° C. in a waterbath for 120 min until the compound is completely dissolved. 2.3. General Method for Compound (LG13) Staining 2.3.1 Materials: • 1. Xylene • 2. […] Syringe • 4. 13 mm filter, membrane 0.22 μm • 5. Soft paper (dry or dipped in ethanol) • 6. Anti-biotin antibody ([Hyb-8] ab201341, Abcam) • 7. Ultravision Quanto Detection System HRP DAB kit (Cat no: TL-125-QHD) • 8. Glycerol (Sigma-Aldrich) • 9. Tris Buffered Saline (TBS; 10×): 1.5 M NaCl, 0.1 M Tris-HCl, pH 7.4. Store at 4° C. • 10. 0.5% Triton X/TBS: 0.5 ml Triton X diluted in 99.5 ml TBS • 11. Mounting media Glycergel (DakoCytomation). • 12. Light Microscope • 13. Anti-p21^WAF1/Cip1 mouse primary antibody [(F-5)(sc-6246) Santa-Cruz] • 14. Anti-p16^INK4A mouse primary antibody [(sc-74401) Santa-Cruz] • 15. Anti-Ki67 rabbit polyclonal antibody [ab16667, Abcam] • 16. Secondary goat anti-mouse antibody Alexa Fluor 568 conjugated [Thermo Fisher Scientific (Cat no: A-11004)] • 17. DAPI (4′,6-Diamidino-2-Phenylindole, Dihydrochloride) [Thermo Fisher Scientific (Cat no: D1306)] • 18. Fluorescence microscope 2.3.2 General Procedures: 2.3.2.1 General Staining Protocol for Cells Mounted on Coverslips • 1. Wash ×1 in TBS for 5 min at RT. • 2. Block the endogenous hydrogen peroxidase, using the UltraVision Hydrogen Peroxide Block included in the Ultravision Quanto Detection System HRP DAB kit (Cat no: TL-125-QHD) for 10 min at RT and in dark conditions. • 3. Wash ×2 in TBS for 30 sec and ×1 for 5 min at RT. • 4. Wash ×1 in EtOH 50% for 5 min at RT. • 5. Wash ×1 EtOH 70% for 5 min at RT. • 6. […] The staining reaction is monitored under the light microscope until detection of the signal (average time 5-8 min). • 8. […] The staining reaction is monitored under the light microscope until detection of the dark brown signal (average time 30 sec-1 min) at RT 1. • 20. […]

[2] = tested on: senescent cells in U2OS hCdt1 Tet-ON cell line, palbociclib-induced human melanoma xenograft mouse model, irradiated human breast tissue; assay: Hybrid histo-/immunochemical assay (HIC) compared with SBB histochemical stain (HC)
Method: as §1, with “Anti-p16^INK4A mouse primary antibody [(sc-74401) Santa-Cruz] • 15. Anti-Ki67 rabbit polyclonal antibody [ab16667, Abcam] • 16. Secondary goat anti-mouse antibody Alexa Fluor 568 conjugated [Thermo Fisher Scientific (Cat no: A-11004)] • 17. DAPI (4′,6-Diamidino-2-Phenylindole, Dihydrochloride) [Thermo Fisher Scientific (Cat no: D1306)] • 18.” left out, “1.” for “1. Wash ×1 in TBS for 5 min at RT. • 2. Block the endogenous hydrogen peroxidase, using the UltraVision Hydrogen Peroxide Block included in the Ultravision Quanto Detection System HRP DAB kit (Cat no: TL-125-QHD) for 10 min at RT and in dark conditions. • 3. Wash ×2 in TBS for 30 sec and ×1 for 5 min at RT. • 4. Wash ×1 in EtOH 50% for 5 min at RT. • 5. Wash ×1 EtOH 70% for 5 min at RT. • 6.”

[3] = tested on: senescent cells in biological systems with established senescence; assay: Quantitative analysis and concordance of SA-b-gal, SBB and GL13 staining; settings: FIG. 15

CC1(COC(=O)CCCC[C@H]2SC[C@H]3NC(=O)N[C@H]32)Nc2cccc3c(/N=N/c4ccc(/N=N/c5ccccc5)c5ccccc45)ccc(c23)N1 (stereo partly drawn) [LG13, (2-methyl-6-((E)-(4-((E)-phenyldiazenyl)naphthalen-1-yl)diazenyl)-2,3-dihydro-1H-perimidin-2-yl)methyl 5-((3aR,4R,6aS)-2-oxohexahydro-1H-thieno[3,4-d]imidazol-4-yl)pentanoate]
relationship between Ki67 expression and compound staining ([1]; double staining in cell culture systems and human clinical samples, FIG. 11): Strict inverse relationship
compound staining of senescent cells with nuclear p16INK4A or p21WAF1/Cip1 expression ([1]; irradiated DLFs, induced Saos2-p21 Tet-ON, K-rasV12 mouse lung adenoma, irradiated human breast samples, FIG. 12i): concurrently positive
relationship between nuclear Ki67 positivity and compound staining ([1]; lung sections, mouse bleomycin-induced lung fibrosis, FIG. 12ii): strict inverse relationship
IHC staining relative to SBB HC staining ([2]; U2OS hCdt1 Tet-ON, palbociclib melanoma xenograft, irradiated human breast tissue, FIG. 14 ai, bi, ci): superiority
senescence detection using the HIC assay ([2]; additional cellular systems, mouse models, human clinical samples, FIG. 14 aii, bii, cii): sensitive senescence detection
specificity compared among SA-b-gal, SBB and GL13 staining [3]: concordance of specificity
